Measurements as given in PubChem BioAssay (NCI).
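Cultured in 96-well plates, cells were exposed to test compound for 48 hours across five concentrations. GI50 marks 50% less growth. TGI marks complete inhibition of growth.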

Tests used:
Assay in all cases: NCI-60 cell line screen, 48 h
786-0 renal = tested on: 786-0 renal
A498 renal = tested on: A498 renal
A549 NSCLC = tested on: A549 NSCLC
ACHN renal = tested on: ACHN renal
CAKI-1 renal = tested on: CAKI-1 renal
CCRF-CEM leukemia = tested on: CCRF-CEM leukemia
COLO 205 colon = tested on: COLO 205 colon
DU-145 prostate = tested on: DU-145 prostate
EKVX NSCLC = tested on: EKVX NSCLC
HCC-2998 colon = tested on: HCC-2998 colon
HCT-116 colon = tested on: HCT-116 colon
HCT-15 colon = tested on: HCT-15 colon
HL-60(TB) leukemia = tested on: HL-60(TB) leukemia
HOP-62 NSCLC = tested on: HOP-62 NSCLC
HOP-92 NSCLC = tested on: HOP-92 NSCLC
HS 578T breast = tested on: HS 578T breast
HT29 colon = tested on: HT29 colon
IGROV1 ovarian = tested on: IGROV1 ovarian
K-562 leukemia = tested on: K-562 leukemia
KM12 colon = tested on: KM12 colon
LOX IMVI melanoma = tested on: LOX IMVI melanoma
M14 melanoma = tested on: M14 melanoma
MCF7 breast = tested on: MCF7 breast
MDA-MB-231 breast = tested on: MDA-MB-231 breast
MDA-MB-435 = tested on: MDA-MB-435
MDA-N = tested on: MDA-N
MOLT-4 leukemia = tested on: MOLT-4 leukemia
NCI-H226 lung = tested on: NCI-H226 lung
NCI-H23 lung = tested on: NCI-H23 lung
NCI-H460 lung = tested on: NCI-H460 lung
NCI-H522 lung = tested on: NCI-H522 lung
NCI/ADR-RES ovarian = tested on: NCI/ADR-RES ovarian
OVCAR-3 ovarian = tested on: OVCAR-3 ovarian
OVCAR-4 ovarian = tested on: OVCAR-4 ovarian
OVCAR-5 ovarian = tested on: OVCAR-5 ovarian
OVCAR-8 ovarian = tested on: OVCAR-8 ovarian
PC-3 prostate = tested on: PC-3 prostate
RPMI-8226 leukemia = tested on: RPMI-8226 leukemia
SF-268 CNS = tested on: SF-268 CNS
SF-295 CNS = tested on: SF-295 CNS
SF-539 CNS = tested on: SF-539 CNS
SK-MEL-2 melanoma = tested on: SK-MEL-2 melanoma
SK-MEL-28 melanoma = tested on: SK-MEL-28 melanoma
SK-MEL-5 melanoma = tested on: SK-MEL-5 melanoma
SK-OV-3 ovarian = tested on: SK-OV-3 ovarian
SN12C renal = tested on: SN12C renal
SNB-19 CNS = tested on: SNB-19 CNS
SNB-75 CNS = tested on: SNB-75 CNS
SR leukemia = tested on: SR leukemia
SW-620 colon = tested on: SW-620 colon
T-47D breast = tested on: T-47D breast
TK-10 renal = tested on: TK-10 renal
U251 CNS = tested on: U251 CNS
UACC-257 melanoma = tested on: UACC-257 melanoma
UACC-62 melanoma = tested on: UACC-62 melanoma
UO-31 renal = tested on: UO-31 renal
BT-549 breast = tested on: BT-549 breast
MALME-3M melanoma = tested on: MALME-3M melanoma
RXF 393 renal = tested on: RXF 393 renal

SMILES: COc1cc(OC2OC(CO)C(O)C(O)C2O)c2c(c1)O[C@@H]1[C@H](O)Oc3cc(OC)c(OC)cc3[C@]1(O)C2=O (stereo not given in full)
- TGI (786-0 renal): > 25 µM
- TGI (A498 renal): > 25 µM
- TGI (A549 NSCLC): > 25 µM
- TGI (ACHN renal): > 25 µM
- TGI (CAKI-1 renal): > 25 µM
- TGI (CCRF-CEM leukemia): > 25 µM
- TGI (COLO 205 colon): > 25 µM
- TGI (DU-145 prostate): > 25 µM
- TGI (EKVX NSCLC): > 25 µM
- TGI (HCC-2998 colon): > 25 µM
- TGI (HCT-116 colon): > 25 µM
- TGI (HCT-15 colon): > 25 µM
- TGI (HL-60(TB) leukemia): > 25 µM
- TGI (HOP-62 NSCLC): > 25 µM
- TGI (HOP-92 NSCLC): > 25 µM
- TGI (HS 578T breast): > 25 µM
- TGI (HT29 colon): > 25 µM
- TGI (IGROV1 ovarian): > 25 µM
- TGI (K-562 leukemia): > 25 µM
- TGI (KM12 colon): > 25 µM
- TGI (LOX IMVI melanoma): > 25 µM
- TGI (M14 melanoma): > 25 µM
- TGI (MCF7 breast): > 25 µM
- TGI (MDA-MB-231 breast): > 25 µM
- TGI (MDA-MB-435): > 25 µM
- TGI (MDA-N): > 25 µM
- TGI (MOLT-4 leukemia): > 25 µM
- TGI (NCI-H226 lung): > 25 µM
- TGI (NCI-H23 lung): > 25 µM
- TGI (NCI-H460 lung): > 25 µM
- TGI (NCI-H522 lung): > 25 µM
- TGI (NCI/ADR-RES ovarian): > 25 µM
- TGI (OVCAR-3 ovarian): > 25 µM
- TGI (OVCAR-4 ovarian): > 25 µM
- TGI (OVCAR-5 ovarian): > 25 µM
- TGI (OVCAR-8 ovarian): > 25 µM
- TGI (PC-3 prostate): > 25 µM
- TGI (RPMI-8226 leukemia): > 25 µM
- TGI (SF-268 CNS): > 25 µM
- TGI (SF-295 CNS): > 25 µM
- TGI (SF-539 CNS): > 25 µM
- TGI (SK-MEL-2 melanoma): > 25 µM
- TGI (SK-MEL-28 melanoma): > 25 µM
- TGI (SK-MEL-5 melanoma): > 25 µM
- TGI (SK-OV-3 ovarian): > 25 µM
- TGI (SN12C renal): > 25 µM
- TGI (SNB-19 CNS): > 25 µM
- TGI (SNB-75 CNS): > 25 µM
- TGI (SR leukemia): > 25 µM
- TGI (SW-620 colon): > 25 µM
- TGI (T-47D breast): > 25 µM
- TGI (TK-10 renal): > 25 µM
- TGI (U251 CNS): > 25 µM
- TGI (UACC-257 melanoma): > 25 µM
- TGI (UACC-62 melanoma): > 25 µM
- TGI (UO-31 renal): > 25 µM

SMILES: CCN(CC)c1ccc(/C=N/NC(=O)c2ccccc2Nc2ccnc(C(F)(F)F)c2)c(O)c1
- GI50 (786-0 renal): 0.183 µM
- TGI (786-0 renal): 0.984 µM
- GI50 (A498 renal): 0.354 µM
- TGI (A498 renal): > 32.9 µM
- GI50 (A549 NSCLC): 0.235 µM
- TGI (A549 NSCLC): > 100 µM
- GI50 (ACHN renal): 0.0834 µM
- TGI (ACHN renal): > 24.6 µM
- GI50 (BT-549 breast): 0.529 µM
- TGI (BT-549 breast): > 100 µM
- GI50 (CAKI-1 renal): 0.0577 µM
- TGI (CAKI-1 renal): 0.387 µM
- GI50 (CCRF-CEM leukemia): 0.055 µM
- TGI (CCRF-CEM leukemia): 1.35 µM
- GI50 (COLO 205 colon): 0.212 µM
- TGI (COLO 205 colon): > 100 µM
- GI50 (DU-145 prostate): 0.134 µM
- TGI (DU-145 prostate): > 100 µM
- GI50 (EKVX NSCLC): 0.101 µM
- TGI (EKVX NSCLC): 4.35 µM
- GI50 (HCC-2998 colon): 0.192 µM
- TGI (HCC-2998 colon): > 100 µM
- GI50 (HCT-116 colon): 0.0895 µM
- TGI (HCT-116 colon): > 100 µM
- GI50 (HCT-15 colon): 0.0457 µM
- TGI (HCT-15 colon): > 100 µM
- GI50 (HL-60(TB) leukemia): 0.162 µM
- TGI (HL-60(TB) leukemia): 0.518 µM
- GI50 (HOP-62 NSCLC): 0.121 µM
- TGI (HOP-62 NSCLC): 5.35 µM
- GI50 (HOP-92 NSCLC): 0.428 µM
- TGI (HOP-92 NSCLC): > 100 µM
- GI50 (HS 578T breast): 1.11 µM
- TGI (HS 578T breast): > 51.6 µM
- GI50 (HT29 colon): 0.362 µM
- TGI (HT29 colon): > 100 µM
- GI50 (IGROV1 ovarian): 0.0747 µM
- TGI (IGROV1 ovarian): 71.4 µM
- GI50 (K-562 leukemia): 0.384 µM
- TGI (K-562 leukemia): > 100 µM
- GI50 (KM12 colon): 0.268 µM
- TGI (KM12 colon): > 100 µM
- GI50 (LOX IMVI melanoma): 0.0837 µM
- GI50 (M14 melanoma): 0.175 µM
- TGI (M14 melanoma): 1.19 µM
- GI50 (MALME-3M melanoma): 0.331 µM
- TGI (MALME-3M melanoma): 5.17 µM
- GI50 (MCF7 breast): 0.248 µM
- TGI (MCF7 breast): > 100 µM
- GI50 (MDA-MB-231 breast): 0.261 µM
- TGI (MDA-MB-231 breast): > 100 µM
- GI50 (MDA-MB-435): 0.428 µM
- TGI (MDA-MB-435): > 100 µM
- GI50 (MOLT-4 leukemia): 0.102 µM
- TGI (MOLT-4 leukemia): 4.2 µM
- GI50 (NCI-H226 lung): 0.235 µM
- TGI (NCI-H226 lung): 2.37 µM
- GI50 (NCI-H23 lung): 0.528 µM
- TGI (NCI-H23 lung): > 100 µM
- GI50 (NCI-H460 lung): 0.0681 µM
- TGI (NCI-H460 lung): > 23.4 µM
- GI50 (NCI-H522 lung): 0.287 µM
- TGI (NCI-H522 lung): 3.55 µM
- GI50 (NCI/ADR-RES ovarian): 0.273 µM
- TGI (NCI/ADR-RES ovarian): 14 µM
- GI50 (OVCAR-3 ovarian): 0.0845 µM
- TGI (OVCAR-3 ovarian): > 100 µM
- GI50 (OVCAR-4 ovarian): 0.0856 µM
- TGI (OVCAR-4 ovarian): > 100 µM
- GI50 (OVCAR-5 ovarian): 0.377 µM
- TGI (OVCAR-5 ovarian): > 100 µM
- GI50 (OVCAR-8 ovarian): 0.22 µM
- TGI (OVCAR-8 ovarian): > 100 µM
- GI50 (PC-3 prostate): 0.997 µM
- TGI (PC-3 prostate): > 100 µM
- GI50 (RPMI-8226 leukemia): 0.0417 µM
- TGI (RPMI-8226 leukemia): 0.601 µM
- GI50 (RXF 393 renal): 0.226 µM
- TGI (RXF 393 renal): > 24.6 µM
- GI50 (SF-268 CNS): 0.0942 µM
- TGI (SF-268 CNS): > 100 µM
- GI50 (SF-295 CNS): 0.184 µM
- TGI (SF-295 CNS): 6.27 µM
- GI50 (SF-539 CNS): 0.248 µM
- GI50 (SK-MEL-2 melanoma): 1.29 µM
- TGI (SK-MEL-2 melanoma): 97.9 µM
- GI50 (SK-MEL-28 melanoma): 0.243 µM
- TGI (SK-MEL-28 melanoma): > 100 µM
- GI50 (SK-MEL-5 melanoma): 0.143 µM
- TGI (SK-MEL-5 melanoma): 0.723 µM
- GI50 (SK-OV-3 ovarian): 0.169 µM
- TGI (SK-OV-3 ovarian): > 100 µM
- GI50 (SN12C renal): 0.278 µM
- TGI (SN12C renal): > 100 µM
- GI50 (SNB-19 CNS): 0.363 µM
- TGI (SNB-19 CNS): > 100 µM
- GI50 (SNB-75 CNS): 0.41 µM
- TGI (SNB-75 CNS): > 100 µM
- GI50 (SR leukemia): 0.0721 µM
- TGI (SR leukemia): 0.728 µM
- GI50 (SW-620 colon): 0.407 µM
- TGI (SW-620 colon): > 100 µM
- GI50 (T-47D breast): 0.471 µM
- TGI (T-47D breast): > 100 µM
- GI50 (TK-10 renal): 0.365 µM
- TGI (TK-10 renal): > 67.4 µM
- GI50 (U251 CNS): 0.103 µM
- TGI (U251 CNS): > 44.7 µM
- GI50 (UACC-257 melanoma): 0.303 µM
- TGI (UACC-257 melanoma): 1.72 µM
- GI50 (UACC-62 melanoma): 0.206 µM
- TGI (UACC-62 melanoma): 0.852 µM
- GI50 (UO-31 renal): 0.112 µM
- TGI (UO-31 renal): 5.76 µM
